Calls of active or inactive are those of the source. No rule for the calls is given here.
Assays:
[1] = Stage specific vaccinia inhibitors, dry powder dose response, infected cell reporter fluorescence (AID 1053168); details: Vaccinia-infected cells, mCherry/Venus stage reporter fluorescence
[2] = system: Vaccinia-infected cells, mCherry/Venus stage reporter fluorescence; assay: as above
[3] = measured here: mCherry reporter AC50
[4] = measured here: Venus reporter AC50

Structure (SMILES) | activity change, negative = inhibition ([1]; at 21 µM (top of the series)) | AC50 [2, 3] | AC50 [2, 4] | AC50 [2] | activity change, negative = inhibition ([1]; at 19.5 µM (top of the series))
C[C@H](CO)N1C[C@H](C)[C@@H](CN(C)Cc2ccc(-c3ccccc3)cc2)Oc2cc(C#C[C@@H](C)O)ccc2S1(=O)=O | -19.5% (inactive) | > 42 µM | – | – | –
COc1ccccc1CN1CC[C@@H]2[C@@H](CO)Nc3ccc(-c4ccc(C(=O)N(C)C)cc4)cc3[C@@H]21 | -12.1% (inactive) | > 42 µM | > 42 µM | – | –
C[C@H](O)C#Cc1ccc2c(c1)O[C@H](CN(C)Cc1ccccc1)[C@@H](C)CN([C@H](C)CO)S2(=O)=O | -3.87% (inactive) | > 42 µM | – | – | –
C[C@@H]1CN([C@@H](C)CO)S(=O)(=O)c2ccc(C#C[C@@H](C)O)cc2O[C@@H]1CN(C)Cc1ccccc1 | -27% (inactive) | – | > 42 µM | – | –
C[C@H](O)C#Cc1ccc2c(c1)O[C@@H](CN(C)Cc1ccccc1)[C@H](C)CN([C@@H](C)CO)S2(=O)=O | -8.31% (inactive) | > 42 µM | > 42 µM | – | –
CN(C)C(=O)c1ccc(-c2cccc(-c3nc(C(=O)NC4CCCC4)cc4c3[C@H](CCO)N([S@@](=O)C(C)(C)C)C4)c2)cc1 | -8.2% (inactive) | – | – | – | –
C[C@@H](O)C#Cc1ccc2c(c1)O[C@@H](CN(C)Cc1cccnc1)[C@@H](C)CN([C@@H](C)CO)S2(=O)=O | 6.15% (inactive) | – | – | – | –
C[C@H](O)C#Cc1ccc2c(c1)O[C@@H](CN(C)Cc1ccccc1)[C@H](C)CN([C@H](C)CO)S2(=O)=O | -12.7% (inactive) | > 42 µM | > 42 µM | – | –
C[C@H](O)C#Cc1ccc2c(c1)O[C@H](CN(C)Cc1ccccc1)[C@@H](C)CN([C@@H](C)CO)S2(=O)=O | -24.7% (inactive) | > 42 µM | > 42 µM | – | –
CN1c2ccc(-c3ccc(C#N)cc3)cc2[C@H]2[C@H](CCN2C(=O)C2CCCCC2)[C@@H]1CO | – | 18.9 µM | 20.5 µM | 18.9 µM | –
C[C@H]1CN([C@@H](C)CO)S(=O)(=O)c2ccc(C#CC(C)(C)O)cc2O[C@H]1CN(C)Cc1ccc(-c2ccccc2)cc1 | – | 14.9 µM | 16.6 µM | 14.9 µM | –
CCOC(=O)[C@@H]1[C@@H]2C=C[C@]3(O2)[C@H](C(=O)NCc2ccccc2)N(CCCCCCO)C(=O)[C@@H]13 | -18.7% (inactive) | > 42 µM | > 42 µM | – | –
C[C@H](O)C#Cc1ccc2c(c1)O[C@@H](CN(C)Cc1ccc(-c3ccccc3)cc1)[C@@H](C)CN([C@@H](C)CO)S2(=O)=O | -12.2% (inactive) | > 42 µM | > 42 µM | – | –
C[C@@H](O)C#Cc1ccc2c(c1)O[C@H](CN(C)Cc1ccc(-c3ccccc3)cc1)[C@@H](C)CN([C@@H](C)CO)S2(=O)=O | – | 18.9 µM | 20.8 µM | 18.9 µM | –
COc1ccccc1CN1CC[C@@H]2[C@H]1c1cc(-c3ccc(C(=O)N(C)C)cc3)ccc1N[C@@H]2CO | -27.4% (inactive) | > 42 µM | – | – | –
CO[C@H]1CN(C)C(=O)c2ccc(NC(=O)c3ccc(F)cc3)cc2OC[C@H](C)N(C(=O)c2ccc(F)cc2)C[C@@H]1C | – | 15.6 µM | – | 15.6 µM | –
N#Cc1ccc(-c2ccc3c(c2)[C@@H]2[C@@H](CCN2C(=O)C2CCCCC2)[C@@H](CO)N3)cc1 | -10.8% (inactive) | – | > 42 µM | – | –
C[C@H](O)C#Cc1ccc2c(c1)O[C@H](CN(C)Cc1ccccc1)[C@H](C)CN([C@H](C)CO)S2(=O)=O | -3.27% (inactive) | – | – | – | –
Cc1noc(C)c1S(=O)(=O)Nc1ccc2c(c1)C(=O)N([C@@H](C)CO)C[C@@H](C)[C@H](CN(C)S(=O)(=O)c1cccs1)O2 | -3.33% (inactive) | – | – | – | –
CN(C)C(=O)c1ccc(-c2cccc(-c3nc(C(=O)NC4CCCCC4)cc4c3[C@@H](CCO)N([S@](=O)C(C)(C)C)C4)c2)cc1 | -8.97% (inactive) | – | – | – | –
N#Cc1ccc(-c2ccc3c(c2)[C@H]2[C@H](CCN2C(=O)C2CCCCC2)[C@H](CO)N3)cc1 | – | 20.8 µM | – | 20.8 µM | –
C[C@H]1CCCCO[C@H](CN(C)S(=O)(=O)c2ccc(Cl)cc2)[C@@H](C)CN([C@@H](C)CO)C(=O)c2cc(NC(=O)Nc3ccc(F)cc3)ccc2O1 | -17.8% (inactive) | > 42 µM | > 42 µM | – | –
C[C@H](CO)N1C[C@H](C)[C@@H](CN(C)S(=O)(=O)c2ccc(Cl)cc2)Oc2c(NS(=O)(=O)c3cn(C)cn3)cccc2C1=O | -2.63% (inactive) | – | – | – | –
COc1ccccc1-c1ccc2c(c1)[C@H]1[C@H](CCN1C(=O)C1CCCCC1)[C@@H](CO)N2 | – | 18.6 µM | – | 18.6 µM | –
CN1c2ccc(C#Cc3cccnc3)cc2[C@H]2[C@H](CCN2C(=O)C2CCCCC2)[C@H]1CO | 19.5% (inactive) | – | – | – | –
C[C@H](O)C#Cc1ccc2c(c1)O[C@H](CN(C)Cc1ccc(-c3ccccc3)cc1)[C@H](C)CN([C@@H](C)CO)S2(=O)=O | -17.3% (inactive) | > 42 µM | > 42 µM | – | –
C[C@@H]1CN([C@H](C)CO)S(=O)(=O)c2ccc(C#C[C@@H](C)O)cc2O[C@@H]1CN(C)Cc1ccccc1 | -2.36% (inactive) | – | – | – | –
C[C@@H](O)C#Cc1ccc2c(c1)O[C@@H](CN(C)Cc1ccncc1)[C@@H](C)CN([C@@H](C)CO)S2(=O)=O | 1.8% (inactive) | – | – | – | –

Structure (SMILES) | activity change, negative = inhibition ([1]; at 21 µM (top of the series)) | AC50 [2, 3] | AC50 [2, 4] | AC50 [2] | activity change, negative = inhibition ([1]; at 19.5 µM (top of the series))
CN1c2ccc(C#Cc3cccnc3)cc2[C@H]2[C@H](CCN2C(=O)C2CCC2)[C@@H]1CO | -15.9% (inactive) | – | – | – | –
C[C@@H]1CN([C@@H](C)CO)C(=O)Cc2cc(NC(=O)C3CCCCC3)ccc2O[C@H]1CN(C)C(=O)Nc1ccccc1 | -0.285% (inactive) | – | – | – | –
C[C@H](O)C#Cc1ccc2c(c1)O[C@@H](CN(C)Cc1ccc(-c3ccccc3)cc1)[C@H](C)CN([C@H](C)CO)S2(=O)=O | -20.1% (inactive) | > 42 µM | – | – | –
C[C@@H](O)C#Cc1ccc2c(c1)O[C@@H](CN(C)Cc1ccc(-c3ccccc3)cc1)[C@@H](C)CN([C@@H](C)CO)S2(=O)=O | – | 3.67 µM | – | 3.67 µM | –
CCCNC(=O)N(C)C[C@@H]1Oc2ncc(C#CC3CCCCC3)cc2C(=O)N([C@H](C)CO)C[C@@H]1C | -19.2% (inactive) | – | > 42 µM | – | –
C[C@H](O)C#Cc1ccc2c(c1)O[C@@H](CN(C)Cc1ccccc1)[C@@H](C)CN([C@H](C)CO)S2(=O)=O | 16.5% (inactive) | – | – | – | –
C[C@H](O)C#Cc1ccc2c(c1)O[C@@H](CN(C)Cc1ccc(-c3ccccc3)cc1)[C@H](C)CN([C@@H](C)CO)S2(=O)=O | – | 21.8 µM | 20.5 µM | 21.8 µM | –
O=C(Nc1ccc2c(c1)[C@@H]1C[C@@H](CC(=O)N3CCc4ccccc4C3)O[C@@H](CO)[C@@H]1O2)Nc1ccccc1F | – | – | – | – | -50.6% (inactive)
C[C@H](CO)N1C[C@H](C)[C@H](CN(C)Cc2ccc(-c3ccccc3)cc2)Oc2cc(C#C[C@@H](C)O)ccc2S1(=O)=O | -20% (inactive) | > 42 µM | > 42 µM | – | –
C[C@H](O)C#Cc1ccc2c(c1)O[C@@H](CN(C)Cc1ccccc1)[C@@H](C)CN([C@@H](C)CO)S2(=O)=O | -2.82% (inactive) | – | – | – | –
C[C@H](O)C#Cc1ccc2c(c1)O[C@H](CN(C)Cc1ccccc1)[C@H](C)CN([C@@H](C)CO)S2(=O)=O | -6.79% (inactive) | – | – | – | –
C[C@H](O)C#Cc1ccc2c(c1)O[C@H](CN(C)Cc1ccc(-c3ccccc3)cc1)[C@H](C)CN([C@H](C)CO)S2(=O)=O | – | 17.1 µM | 20.3 µM | 17.1 µM | –
CN1c2ccc(C#Cc3cccnc3)cc2[C@@H]2[C@@H](CCN2C(=O)C2CCC2)[C@@H]1CO | 10.1% (inactive) | – | – | – | –
C[C@@H](O)C#Cc1ccc2c(c1)O[C@H](CN(C)Cc1ccccc1)[C@@H](C)CN([C@@H](C)CO)S2(=O)=O | -5.1% (inactive) | > 42 µM | – | – | –
CN1c2ccc(-c3ccc(C#N)cc3)cc2[C@@H]2[C@@H](CCN2C(=O)C2CCCCC2)[C@H]1CO | -26% (inactive) | – | > 42 µM | – | –
COc1ccccc1CN1CC[C@@H]2[C@@H](CO)Nc3ccc(C#Cc4ccccc4)cc3[C@@H]21 | – | 20.9 µM | – | 20.9 µM | –
CN1c2ccc(C#Cc3cccnc3)cc2[C@H]2[C@H](CCN2C(=O)C2CCCCC2)[C@@H]1CO | 9.03% (inactive) | – | – | – | –
CCCNC(=O)c1cc2c(c(-c3cccc(-c4cccc(F)c4)c3)n1)[C@H](CCO)N([S@@](=O)C(C)(C)C)C2 | -8.81% (inactive) | > 42 µM | – | – | –
COc1ccccc1CN1CC[C@@H]2[C@H]1c1cc(C#Cc3ccccc3)ccc1N[C@@H]2CO | – | 20.7 µM | – | 20.7 µM | –
C[C@@H]1CN([C@H](C)CO)S(=O)(=O)c2ccc(C#C[C@@H](C)O)cc2O[C@H]1CN(C)Cc1ccccc1 | -15.2% (inactive) | – | – | – | –
COc1ccccc1CN1CC[C@H]2[C@H](CO)Nc3ccc(-c4ccc(C(=O)N(C)C)cc4)cc3[C@H]21 | -16.1% (inactive) | > 42 µM | – | – | –
C[C@H](O)C#Cc1ccc2c(c1)O[C@H](CN(C)Cc1ccc(-c3ccccc3)cc1)[C@@H](C)CN([C@@H](C)CO)S2(=O)=O | – | 16.4 µM | 15.9 µM | 16.4 µM | –
C[C@@H](O)C#Cc1ccc2c(c1)O[C@@H](CN(C)Cc1ccccc1)[C@@H](C)CN([C@@H](C)CO)S2(=O)=O | -38% (inactive) | – | – | – | –
CN1c2ccc(C#Cc3cccnc3)cc2[C@@H]2[C@@H](CCN2C(=O)C2CCC2)[C@H]1CO | -4.64% (inactive) | – | – | – | –
CCCNC(=O)C[C@H]1CC[C@@H]2[C@@H](COc3ccc(NC(=O)CCC)cc3C(=O)N2C)O1 | 2.55% (inactive) | – | – | – | –
O=C(Nc1ccc2c(c1)[C@@H]1C[C@@H](CC(=O)N3CCCCC3)O[C@@H](CO)[C@@H]1O2)Nc1ccccc1F | 3.1% (inactive) | – | – | – | –
C[C@H](CO)N1C[C@H](C)[C@H](CN(C)Cc2ccccc2)Oc2cc(C#C[C@@H](C)O)ccc2S1(=O)=O | 1.54% (inactive) | – | – | – | –

Reference: PubChem BioAssay AID1053168 (Broad Institute, 2014)
